In assay [1] the target is Neuronal acetylcholine receptor; alpha4/beta2 (Rattus norvegicus, UniProt P09483+P12390). As to the kind of experiment: Displacement of [3H]cytisine from rat alpha4beta2 nAChR in rat brain cell membrane. In kind it is cell membranes. Background: In a radioligand displacement assay an active substance lowers the binding of a labelled ligand.
Assay [2] concerns the target Neuronal acetylcholine receptor subunit alpha-7 (Rattus norvegicus, UniProt Q05941). As to the kind of experiment: Displacement of [125I]alpha-Bungarotoxin from alpha7 nAchR in rat brain cell membrane. In kind it is cell membranes.

Neuronal acetylcholine receptor; alpha4/beta2, sequence (P09483 whole entry): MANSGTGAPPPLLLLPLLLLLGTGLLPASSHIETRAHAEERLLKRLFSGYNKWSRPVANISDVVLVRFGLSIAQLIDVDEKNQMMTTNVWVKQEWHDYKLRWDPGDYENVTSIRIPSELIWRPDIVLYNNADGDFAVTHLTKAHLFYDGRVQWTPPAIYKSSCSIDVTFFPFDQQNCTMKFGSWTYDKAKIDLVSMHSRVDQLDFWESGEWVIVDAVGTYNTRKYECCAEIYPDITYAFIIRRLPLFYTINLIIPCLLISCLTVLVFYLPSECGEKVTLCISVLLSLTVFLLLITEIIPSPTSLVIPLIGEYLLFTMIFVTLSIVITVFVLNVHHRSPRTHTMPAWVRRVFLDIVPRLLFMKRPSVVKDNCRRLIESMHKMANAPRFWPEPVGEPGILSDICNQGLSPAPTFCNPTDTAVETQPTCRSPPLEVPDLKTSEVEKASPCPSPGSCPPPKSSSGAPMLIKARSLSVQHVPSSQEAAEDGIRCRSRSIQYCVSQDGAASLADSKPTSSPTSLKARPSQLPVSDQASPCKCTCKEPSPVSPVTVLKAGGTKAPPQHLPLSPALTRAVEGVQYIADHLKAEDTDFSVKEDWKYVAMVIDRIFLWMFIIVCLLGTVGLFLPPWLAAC
Neuronal acetylcholine receptor; alpha4/beta2, sequence (P12390 whole entry): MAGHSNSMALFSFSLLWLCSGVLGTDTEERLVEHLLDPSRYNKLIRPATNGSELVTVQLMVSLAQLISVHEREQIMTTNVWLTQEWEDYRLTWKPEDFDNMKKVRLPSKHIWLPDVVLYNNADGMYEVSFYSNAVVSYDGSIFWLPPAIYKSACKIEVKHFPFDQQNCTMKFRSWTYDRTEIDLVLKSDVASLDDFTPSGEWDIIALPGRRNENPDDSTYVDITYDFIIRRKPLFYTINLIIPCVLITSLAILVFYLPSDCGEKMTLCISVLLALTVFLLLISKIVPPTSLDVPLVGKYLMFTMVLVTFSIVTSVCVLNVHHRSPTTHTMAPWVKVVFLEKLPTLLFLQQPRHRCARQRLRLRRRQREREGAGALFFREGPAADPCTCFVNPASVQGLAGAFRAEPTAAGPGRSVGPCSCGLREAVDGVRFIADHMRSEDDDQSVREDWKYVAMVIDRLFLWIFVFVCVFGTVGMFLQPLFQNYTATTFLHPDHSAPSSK
Neuronal acetylcholine receptor subunit alpha-7, sequence (Q05941 whole entry): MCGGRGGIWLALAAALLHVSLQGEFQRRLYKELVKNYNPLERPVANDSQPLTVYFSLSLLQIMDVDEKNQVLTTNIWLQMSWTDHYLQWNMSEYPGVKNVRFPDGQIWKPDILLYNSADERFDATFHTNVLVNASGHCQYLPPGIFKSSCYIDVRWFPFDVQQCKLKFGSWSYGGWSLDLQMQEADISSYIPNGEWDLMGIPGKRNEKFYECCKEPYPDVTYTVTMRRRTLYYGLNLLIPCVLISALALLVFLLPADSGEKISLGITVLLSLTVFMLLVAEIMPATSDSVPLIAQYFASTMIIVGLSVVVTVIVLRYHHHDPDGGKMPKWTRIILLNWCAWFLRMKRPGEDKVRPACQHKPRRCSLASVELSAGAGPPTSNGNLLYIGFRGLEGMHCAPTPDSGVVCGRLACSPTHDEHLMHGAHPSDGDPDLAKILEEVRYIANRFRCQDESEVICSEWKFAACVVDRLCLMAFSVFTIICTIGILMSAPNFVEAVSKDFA

What is called Ki is the equilibrium dissociation constant of an inhibitor or competing ligand from its target. Low readings indicate tighter binding, high ones weaker binding. Turning to `O=c1c(F)ccc2n1C[C@@H]1CNC[C@H]2C1`, the Ki in assay [1] came to 6.53 nM. Consider `O=c1c(C(F)(F)F)ccc2n1C[C@@H]1CNC[C@H]2C1`, for which the Ki in assay [1] is 0.22 nM; in assay [2] it was 1000 nM.

As for `Cc1ccc2n(c1=O)C[C@@H]1CNC[C@H]2C1`, the Ki was 0.24 nM in assay [1] and 2000 nM in assay [2].

As to `O=c1cccc2n1C[C@@H]1C[C@@H]2CN(I)C1`, the Ki was 0.165 nM in assay [1] and 2000 nM in assay [2]. `O=c1c(Br)ccc2n1C[C@@H]1CNC[C@H]2C1`: the values for the Ki in assay [1] and in assay [2] were 0.116 nM and 401 nM, respectively. For `O=c1cccc2n1C[C@@H]1C[C@@H]2CN(Br)C1` the same measures were 0.208 nM and 112 nM. For `O=c1cccc2n1C[C@@H]1CNC[C@H]2C1` [CYTISINICLINE] the same measures were 1.06 nM and 1000 nM.

The values are drawn from ChEMBL document CHEMBL1268923, “Identification of 9-fluoro substituted (-)-cytisine derivatives as ligands with high affinity for nicotinic receptors” (Bioorg Med Chem Lett, 2010).
